Test results reported in US20250109127A1, “METHODS OF USE OF PHENOXYPROPYLAMINE COMPOUNDS TO TREAT DEPRESSION” (Minerva Neurosciences, Inc., priority 2013, published 2025).
Several values for one entry are separate records, joined by “and”; a condition that tells them apart may be missing. Equal entries are not always repeated. Structures can show the parent of a compound that is named as a salt.

Tested on: 5-HT release in the rat prefrontal cortex
Assay: Microdialysis: 5-HT release in prefrontal cortex after I.P. administration
Assay type: in vivo
Settings: for 5-HT (% of respective basal), individual animal: 0.1 mg/kg I.P., c2-c9 = R#13,14,20,19,25,26,31,32; for 5-HT (% of respective basal), individual animal / 5-HT release, individual animals: hydrochloride; for 5-HT release, MEAN / 5-HT release, individual animals: 0.3 mg/kg I.P.; for 5-HT release, MEAN: n = 8; for 5-HT release, individual animals: one column per animal R#11,12,18,23,29,30,17,24
Description: The aim of the study was to evaluate, using microdialysis, the effects of an intraperitoneal (I.P.) administration in rats of three different doses of SON-117 on dopamine and its metabolites, serotonin and its metabolite (5-HIAA), and norepinephrine levels in prefrontal cortex.
Thirty-two adult male Wistar rats were used for the whole study (4 groups of eight animals planned for the study, Table 1).
Surgery was performed on rats weighing about 300 g at the beginning of the experiments. Rats were anaesthetized with Ketamine (50 mg/kg) & Xylazine (15 mg/kg) by intramuscular administration. The animals were placed in a stereotaxic apparatus in the flat-skull position at a constant setting of −3.3 mm between ear bars and the incisor bar. The animals were treated with a local anesthesic (xylocaine 1%, Astra Zeneca) and an analgesic (Temgesic, from Schering Plough, 0.05 mg/kg, s.c.). A rostrocaudal midline incision was made with a lancet to expose the dorsal skull surface. The “stereotaxic zero” was defined by the Bregma in accordance with Paxinos and Watson's atlas (1986). A hole was drilled in the skull with a drill and the meninges were pierced with a sterile needle to implant a CMA12 guide cannula which later received the dialysis probe.
Coordinates used for implanting guide cannula in prefrontal cortex from Bregma were anteroposterior 3.7 mm, mediolateral 0.8 mm, and dorsoventral −2 mm (top of the probe was at −5 mm). The guide cannula was fixed to the skull with two stainless steel screws (1.88 mm outside diameter) anchored. An application of dental cement was added. A plastic collar allowed each animal to be tethered to a Swivel assembly of the CMA 120 awake animal system. Following surgery, rats were kept in individual cages and allowed to recover for a minimum of 3-5 days before the experimentation. The rats were handled and put in plastic bowl for 10 min at least every day to habituate the animals to their new environment for the dialysis. An I.P. administration with saline was also performed every day.
Dialysis probes (CMA12/3 mm, membrane, 20 kD cut-off, Carnegie Medicine, Stockholm, Sweden), were carefully washed before inserting into the guide cannula. The wash was performed with the artificial cerebrospinal fluid (aCSF) medium (NaCl 147 mM, KCl 2.7 mM, CaCl2 1.2 mM, MgCl2 0.85 mM) at room temperature. The dialysis system was then equilibrated at 20° C. at a perfusion rate of 1 μl/min with a Carnegie pump (CMA100). All catheters (FEP tubing, internal volume of 1.2 μl/10 cm, and tubing adaptors) used for microdialysis were treated in the same conditions.
The probes duly prepared were inserted into the guide cannula and the CMA120 Swivel assembly secured to the animal using a plastic collar. Flow through the dialysis probe with aCSF was maintained at a rate of 1 μl/min during the whole experimentation. The first four fractions (corresponding to 2 hours) were discarded to avoid the effects of parenchymal disturbance and to ensure that an approximate steady-state level was reached. Fractions were then collected over a period of 8.5 h during which time the animals remained quiet. The dialysates were automatically collected with an autosampler (microfraction collector CMA 140, Carnegie Medicin) and stored at −80° C. until analysis. […] Perfusion was then maintained for 7 hours with aCSF. The dialysates (30 μl) were collected into 300 μl vials, transferred into dry ice and then kept frozen (−80° C.) until analysis. Frozen samples were shipped to a partner for analysis. At the end of the microdialysis study, a PBS with colored ink was perfused through the probe in order to visualize the dialyzed area.
Catecholamine assay: Concentrations of dopamine, DOPAC, HVA, 5-HIAA, 5-HT, and norepinephrin were determined for each sample by HPLC coupled with electrochemical detection. […]

## Cc1nnc(-c2cc3c(OC[C@@H](O)CN4CCC(c5ccc(Cl)c(Cl)c5)CC4)cccc3o2)o1 [SON-117, (S)-1-(4-(3,4-dichlorophenyl)piperidino)-3-(2-(5-methyl-1,3,4-oxadiazol-2-yl)benzo(b)furan-4-yloxy)-2-propanol hydrochloride]
T30-T1 h
  5-HT (% of respective basal), individual animal: 69.00 % of respective basal and 117.47 % of respective basal and 153.30 % of respective basal and 119.68 % of respective basal and 228.97 % of respective basal and 127.98 % of respective basal and 113.81 % of respective basal and 57.12 % of respective basal
  5-HT release, MEAN: 111.24 % of respective basal
  5-HT release, individual animals: 160.62 % of respective basal and 82.62 % of respective basal and 90.53 % of respective basal and 121.61 % of respective basal and 144.48 % of respective basal and 187.01 % of respective basal and 55.67 % of respective basal and 47.37 % of respective basal
T1 h 30-T2 h
  5-HT (% of respective basal), individual animal: 92.30 % of respective basal and 410.73 % of respective basal and 162.34 % of respective basal and 123.16 % of respective basal and 77.29 % of respective basal and 149.14 % of respective basal and 262.61 % of respective basal and 62.56 % of respective basal
  5-HT release, MEAN: 114.14 % of respective basal
  5-HT release, individual animals: 181.24 % of respective basal and 97.85 % of respective basal and 76.79 % of respective basal and 83.68 % of respective basal and 125.63 % of respective basal and 123.37 % of respective basal and 24.18 % of respective basal and 200.38 % of respective basal
T1 h-T1 h 30
  5-HT (% of respective basal), individual animal: 84.80 % of respective basal and 173.62 % of respective basal and 140.43 % of respective basal and 113.99 % of respective basal and 98.07 % of respective basal and 572.83 % of respective basal and 162.09 % of respective basal and 62.45 % of respective basal
  5-HT release, MEAN: 144.23 % of respective basal
  5-HT release, individual animals: 149.89 % of respective basal and 128.02 % of respective basal and 96.66 % of respective basal and 76.75 % of respective basal and 140.12 % of respective basal and 235.56 % of respective basal and 63.72 % of respective basal and 263.12 % of respective basal
T2 h 30-T3 h
  5-HT (% of respective basal), individual animal: 51.79 % of respective basal and 182.3 % of respective basal and 109.29 % of respective basal and 102.05 % of respective basal and 101.27 % of respective basal and 528.93 % of respective basal and 86.68 % of respective basal and 564.06 % of respective basal
  5-HT release, MEAN: 126.37 % of respective basal
  5-HT release, individual animals: 96.77 % of respective basal and 104.38 % of respective basal and 101.02 % of respective basal and 167.96 % of respective basal and 125.41 % of respective basal and 206.04 % of respective basal and 42.18 % of respective basal and 167.18 % of respective basal
T2 h-T2 h 30
  5-HT (% of respective basal), individual animal: 82.11 % of respective basal and 59.17 % of respective basal and 129.41 % of respective basal and 112.33 % of respective basal and 523.12 % of respective basal and 458.59 % of respective basal and 127.80 % of respective basal and 1473.07 % of respective basal
  5-HT release, MEAN: 106.16 % of respective basal
  5-HT release, individual animals: 111.34 % of respective basal and 124.56 % of respective basal and 108.53 % of respective basal and 74.72 % of respective basal and 123.51 % of respective basal and 215.61 % of respective basal and 33.60 % of respective basal and 57.37 % of respective basal
T3 h 30-T4 h
  5-HT (% of respective basal), individual animal: 74.33 % of respective basal and 66.30 % of respective basal and 153.79 % of respective basal and 155.51 % of respective basal and 132.93 % of respective basal and 131.96 % of respective basal and 93.88 % of respective basal and 405.95 % of respective basal
  5-HT release, MEAN: 133.06 % of respective basal
T3 h-T3 h 30
  5-HT (% of respective basal), individual animal: 72.21 % of respective basal and 249.58 % of respective basal and 128.14 % of respective basal and 138.05 % of respective basal and 139.82 % of respective basal and 122.70 % of respective basal and 103.66 % of respective basal and 298.06 % of respective basal
T4 h 30-T5 h
  5-HT (% of respective basal), individual animal: 79.25 % of respective basal and 111.21 % of respective basal and 188.06 % of respective basal and 105.16 % of respective basal and 99.59 % of respective basal and 221.4 % of respective basal and 113.08 % of respective basal and 1455.86 % of respective basal
T4 h-T4 h 30
  5-HT (% of respective basal), individual animal: 10.23 % of respective basal and 242.01 % of respective basal and 138.36 % of respective basal and 81.92 % of respective basal and 75.44 % of respective basal and 312.84 % of respective basal and 89.43 % of respective basal and 1851.01 % of respective basal
T5 h 30-T6 h
  5-HT (% of respective basal), individual animal: 18.22 % of respective basal and 541.94 % of respective basal and 112.81 % of respective basal and 91.86 % of respective basal and 67.97 % of respective basal and 390.29 % of respective basal and 95.06 % of respective basal and 682.45 % of respective basal
T5 h-T5 h 30
  5-HT (% of respective basal), individual animal: 106.82 % of respective basal and 610.15 % of respective basal and 166.13 % of respective basal and 112.99 % of respective basal and 48.55 % of respective basal and 433.73 % of respective basal and 103.27 % of respective basal and 900.33 % of respective basal
T6 h 30-T7 h
  5-HT (% of respective basal), individual animal: 76.67 % of respective basal and 764.86 % of respective basal and 75.95 % of respective basal and 109.17 % of respective basal
T6 h-T6 h 30
  5-HT (% of respective basal), individual animal: 98.17 % of respective basal and 780.23 % of respective basal and 117.32 % of respective basal and 105.66 % of respective basal and 44.34 % of respective basal and 387.64 % of respective basal and 93.11 % of respective basal and 410.53 % of respective basal
T0-T30 min
  5-HT release, MEAN: 119.65 % of respective basal
